Like-named read-outs stand apart in the source and are kept apart here.
Assays:
[1] = system: HCT116 KRAS G13D cells; assay: Development of drug resistance under continuous treatment; format: cell-based, human; details: continuous treatment at 5x GI50
Procedure: HCT116 wild-type cells (Horizon Discovery Ltd.) cultured in McCoy's 5A (Life Technologies #26600) medium supplemented with 10% Foetal Calf Serum (Life Technologies #10270) were treated on three occasions with titrations of the PLK1 ATP-competitive inhibitor BI 2536 (Selleckchem #S1109) or Poloppin in order to determine the 2.5x GI50, 3x GI50 and 5x GI50 values for each compound required to initiate the development of resistance. Cells were subsequently treated with 2.5x GI50, 3x GI50 and 5x GI50 concentrations of either compound, changing media and compound every three to four days until resistant colonies emerged or no viable cells remained. Single cell clones were isolated from cells resistant to 5x GI50 BI 2536. Equivalent experiments using 3x GI50 or 2.5x GI50 doses of Poloppin or BI2536 yielded identical results (data not shown). BI 2536-resistant clones (HCT116 BI 2536-Res. Clones) were treated with BI2536 or Poloppin, alongside drug-sensitive parental HCT116 cells (HCT116 wt), and viability was assessed after 72 h. Viability is represented as percentage survival normalised to DMSO control. […]

[2] = system: Panc 05.04; assay: Cell viability (SRB), Panc 05.04; format: cell-based; details: Homo sapiens, Panc 05.04, 72 h
Procedure: SW48 Parental, SW48 G12D, Panc-1, HPAF-II, Panc 02.03 and Panc 05.04 cell lines were seeded overnight at 5000 cells per well in a 96 well plate in recommended media (ATCC). Compounds were added the following day and viability was measured at 72h using the sulforhodamine B (SRB) colorimetric assay as follows. Cells were fixed by replacing media with 1% v/v Trichloroacetic Acid (TCA) (Sigma-Aldrich) at 4°C and incubated for 1h also at 4°C. Wells were washed thoroughly with copious amounts of deionised water before staining with Sulforhodamine B (SRB) (Sigma-Aldrich) solution (0.057% w/v in 1% v/v Acetic Acid (VWR)) for 30 min. Stain was aspirated and wells washed with several changes of 1% v/v Acetic Acid until unbound stain was removed, before air-drying. Bound stain was solubilized with 100μl / well 10mM Tris (pH 8.0) (Trizma Base (121.1) Sigma-Aldrich) with agitation for 10 min. Fluorescence intensity was recorded at Ex540nm / Em590nm using a BMG Pherastar Plus plate reader ([Vichai and Kirtikara, 2006]).
Pancreatic organoids were extracted and cultured as detailed above ([Boj et al., 2015]). In brief, pancreatic organoids were seeded at 600 cells per well in a 96 well plate and allowed to grow for 7 days with media replenishment on the 3rd day. Full-grown organoids were then treated with compounds for 72h and viability determined using CellTitre Glo 3D assay (Promega). For viability assays with c-MET siRNA, cells were reverse transfected in a 6 cm dish using Dharmafect 1 (GE Dharmacon) per manufacturer’s instructions. On the following day, cells were trypsinised and plated onto 96 well plates or 6 well plates. The 96 well plates were treated with a dose range of compounds or DMSO, and viability was determined via SRB colorimetric assay. […]
Cells were reverse-transfected with 50nM (SW48 parental, SW48 KRAS G12D and Panc-1) or 25nM (HeLa Flp-In T-REx parental cells) siRNA using Dharmafect (GE Dharmacon) as manufacturer’s recommendations. […] Viability was assessed after 72 hrs, with the SRB colorimetric assay. Knockdown efficiencies were determined by Western blot or RT-qPCR. […]

[3] = Tolerability and body weight in the xenograft study; format: in vivo, mouse; details: 50 mg/kg oral, mice; no adverse health observations or recorded weight loss
Procedure: Tumours were established by sub-cutaneous implantation of 2 x 10^6 HCT116 cells suspended in 50% Matrigel into the flanks of a cohort of mice. When a sufficient number of mice had developed tumours of approximately 100mm3, they were randomly assigned to three groups: Vehicle, 50mg/kg Poloppin-II or 200mg/kg Poloppin-II, with 10 mice per group. Mice were treated orally according to their treatment group once every three days. Tumour volume was measured three times per week with calipers. Body weight was measured three times per week. In addition to mice assigned to tumour volume efficacy arm of the study, 16 mice with established HCT116 xenografts were assigned to either Vehicle or 200mg/kg oral dosing groups, with 8 mice per group. 24 hours after a single dose, mice were euthanised, tumours removed, snap frozen and 30-50microgram of lysates were analysed by Western blotting on 4-12% Bis-Tris acrylamide gels, and transferred using the Invitrogen iBlot dry system. Phospho-Histone H3 was detected using Abcam antibody ab5176, beta-actin with Sigma antibody a5316. […] HRP was visualised with ECL-Plus (GE Healthcare).

| SMILES | acquisition of drug resistance [1] | EC50 ([2]; read-out: EC50, % survival, Panc 05.04, All Stars control siRNA, 72 h) [µM] | EC50 ([2]; read-out: EC50, % survival, Panc 05.04, siMET, 72 h) [µM] | tolerability during the study [3] |
| --- | --- | --- | --- | --- |
| O=C(O)CCc1ccc(-c2ccc(Br)cc2)n1-c1ccccc1C(F)(F)F [Poloppin] | undetectable | 23.8 ± 1.08 | 11.6 ± 1.07 | – |
| CN(C)CCNC(=O)c1ccc(-c2ccc(-c3ccc(Cl)cc3)n2-c2ccccc2C(F)(F)F)cc1 [Poloppin-II] | – | – | – | well tolerated |
